# In PubChem BioAssay (NCI):
#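 Cells were grown in 96-well plates and exposed to each compound for 48 hours at five concentrations; endpoints were interpolated linearly between bracketing concentrations, or set to the highest concentration if not reached. Here, GI50 denotes the concentration required for 50% inhibition of growth. TGI marks complete inhibition of growth.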
# Legend:
# Assay in all cases: NCI tumour cell line growth inhibition, 48 h
# M14 melanoma = tested on: M14 melanoma
# OVCAR-8 ovarian = tested on: OVCAR-8 ovarian
# HT29 colon = tested on: HT29 colon
# MOLT-4 leukemia = tested on: MOLT-4 leukemia
# UO-31 renal = tested on: UO-31 renal
# OVCAR-3 ovarian = tested on: OVCAR-3 ovarian
# SNB-75 CNS = tested on: SNB-75 CNS
# SK-MEL-2 melanoma = tested on: SK-MEL-2 melanoma
# NCI-H522 lung = tested on: NCI-H522 lung
# OVCAR-4 ovarian = tested on: OVCAR-4 ovarian
# SR leukemia = tested on: SR leukemia
# NCI/ADR-RES ovarian = tested on: NCI/ADR-RES ovarian
# HOP-62 NSCLC = tested on: HOP-62 NSCLC
# A549 NSCLC = tested on: A549 NSCLC
# DU-145 prostate = tested on: DU-145 prostate
# CCRF-CEM leukemia = tested on: CCRF-CEM leukemia
# TK-10 renal = tested on: TK-10 renal
# RXF 393 renal = tested on: RXF 393 renal
# LOX IMVI melanoma = tested on: LOX IMVI melanoma
# NCI-H23 lung = tested on: NCI-H23 lung
# NCI-H460 lung = tested on: NCI-H460 lung
# COLO 205 colon = tested on: COLO 205 colon
# MCF7 breast = tested on: MCF7 breast
# ACHN renal = tested on: ACHN renal
# SK-OV-3 ovarian = tested on: SK-OV-3 ovarian
# NCI-H226 lung = tested on: NCI-H226 lung
# KM12 colon = tested on: KM12 colon
# SNB-19 CNS = tested on: SNB-19 CNS
# HCT-15 colon = tested on: HCT-15 colon
# UACC-62 melanoma = tested on: UACC-62 melanoma
# HL-60(TB) leukemia = tested on: HL-60(TB) leukemia
# SN12C renal = tested on: SN12C renal
# HCC-2998 colon = tested on: HCC-2998 colon
# SK-MEL-5 melanoma = tested on: SK-MEL-5 melanoma
# K-562 leukemia = tested on: K-562 leukemia
# IGROV1 ovarian = tested on: IGROV1 ovarian
# 786-0 renal = tested on: 786-0 renal
# PC-3 prostate = tested on: PC-3 prostate
# UACC-257 melanoma = tested on: UACC-257 melanoma
# SF-295 CNS = tested on: SF-295 CNS
# T-47D breast = tested on: T-47D breast
# HOP-92 NSCLC = tested on: HOP-92 NSCLC
# BT-549 breast = tested on: BT-549 breast
# SK-MEL-28 melanoma = tested on: SK-MEL-28 melanoma
# CAKI-1 renal = tested on: CAKI-1 renal
# SF-539 CNS = tested on: SF-539 CNS
# A498 renal = tested on: A498 renal
# RPMI-8226 leukemia = tested on: RPMI-8226 leukemia
# MDA-MB-435 = tested on: MDA-MB-435
# SW-620 colon = tested on: SW-620 colon
# MALME-3M melanoma = tested on: MALME-3M melanoma
# U251 CNS = tested on: U251 CNS
# HCT-116 colon = tested on: HCT-116 colon
# MDA-MB-231 breast = tested on: MDA-MB-231 breast
# HS 578T breast = tested on: HS 578T breast
# OVCAR-5 ovarian = tested on: OVCAR-5 ovarian
# SF-268 CNS = tested on: SF-268 CNS
structure (smiles),measurement,setting,value
COc1ccc2c(c1)C(c1ccccc1Cl)=Nc1c(n[nH]c1C)N2,GI50,M14 melanoma,> 25 µM
same,TGI,M14 melanoma,> 25 µM
same,GI50,OVCAR-8 ovarian,> 25 µM
same,TGI,OVCAR-8 ovarian,> 25 µM
same,GI50,HT29 colon,> 18.7 µM
same,TGI,HT29 colon,> 25 µM
same,GI50,MOLT-4 leukemia,> 25 µM
same,TGI,MOLT-4 leukemia,> 25 µM
same,GI50,UO-31 renal,13.9 µM
same,TGI,UO-31 renal,> 25 µM
same,GI50,OVCAR-3 ovarian,> 25 µM
same,TGI,OVCAR-3 ovarian,> 25 µM
same,GI50,SNB-75 CNS,3.14 µM
same,TGI,SNB-75 CNS,> 17.3 µM
same,GI50,SK-MEL-2 melanoma,> 11.2 µM
same,TGI,SK-MEL-2 melanoma,> 23.4 µM
same,GI50,NCI-H522 lung,> 20 µM
same,TGI,NCI-H522 lung,> 25 µM
same,GI50,OVCAR-4 ovarian,> 25 µM
same,TGI,OVCAR-4 ovarian,> 25 µM
same,GI50,SR leukemia,10.5 µM
same,TGI,SR leukemia,> 25 µM
same,GI50,NCI/ADR-RES ovarian,> 25 µM
same,TGI,NCI/ADR-RES ovarian,> 25 µM
same,GI50,HOP-62 NSCLC,> 25 µM
same,TGI,HOP-62 NSCLC,> 25 µM
same,GI50,A549 NSCLC,12.5 µM
same,TGI,A549 NSCLC,> 25 µM
same,GI50,DU-145 prostate,> 25 µM
same,TGI,DU-145 prostate,> 25 µM
same,GI50,CCRF-CEM leukemia,> 25 µM
same,TGI,CCRF-CEM leukemia,> 25 µM
same,GI50,TK-10 renal,> 25 µM
same,TGI,TK-10 renal,> 25 µM
same,GI50,RXF 393 renal,3.7 µM
same,TGI,RXF 393 renal,> 25 µM
same,GI50,LOX IMVI melanoma,14.7 µM
same,TGI,LOX IMVI melanoma,> 25 µM
same,GI50,NCI-H23 lung,22.6 µM
same,TGI,NCI-H23 lung,> 25 µM
same,GI50,NCI-H460 lung,18.5 µM
same,TGI,NCI-H460 lung,> 25 µM
same,GI50,COLO 205 colon,11.7 µM
same,TGI,COLO 205 colon,> 25 µM
same,GI50,MCF7 breast,13.7 µM
same,TGI,MCF7 breast,> 25 µM
same,GI50,ACHN renal,> 20.5 µM
same,TGI,ACHN renal,> 25 µM
same,GI50,SK-OV-3 ovarian,> 25 µM
same,TGI,SK-OV-3 ovarian,> 25 µM
same,GI50,NCI-H226 lung,3.28 µM
same,TGI,NCI-H226 lung,> 25 µM
same,GI50,KM12 colon,0.995 µM
same,TGI,KM12 colon,> 25 µM
same,GI50,SNB-19 CNS,> 25 µM
same,TGI,SNB-19 CNS,> 25 µM
same,GI50,HCT-15 colon,14 µM
same,TGI,HCT-15 colon,> 25 µM
same,GI50,UACC-62 melanoma,25 µM
same,TGI,UACC-62 melanoma,> 25 µM
same,GI50,HL-60(TB) leukemia,> 25 µM
same,TGI,HL-60(TB) leukemia,> 25 µM
same,GI50,SN12C renal,> 20.3 µM
same,TGI,SN12C renal,> 25 µM
same,GI50,HCC-2998 colon,> 25 µM
same,TGI,HCC-2998 colon,> 25 µM
same,GI50,SK-MEL-5 melanoma,> 25 µM
same,TGI,SK-MEL-5 melanoma,> 25 µM
same,GI50,K-562 leukemia,> 25 µM
same,TGI,K-562 leukemia,> 25 µM
same,GI50,IGROV1 ovarian,> 25 µM
same,TGI,IGROV1 ovarian,> 25 µM
same,GI50,786-0 renal,> 18.6 µM
same,TGI,786-0 renal,> 25 µM
same,GI50,PC-3 prostate,> 22.7 µM
same,TGI,PC-3 prostate,> 25 µM
same,GI50,UACC-257 melanoma,> 25 µM
same,TGI,UACC-257 melanoma,> 25 µM
same,GI50,SF-295 CNS,> 25 µM
same,TGI,SF-295 CNS,> 25 µM
same,GI50,T-47D breast,> 17.6 µM
same,TGI,T-47D breast,> 25 µM
same,GI50,HOP-92 NSCLC,> 25 µM
same,TGI,HOP-92 NSCLC,> 25 µM
same,GI50,BT-549 breast,> 21.2 µM
same,TGI,BT-549 breast,> 25 µM
same,GI50,SK-MEL-28 melanoma,> 25 µM
same,TGI,SK-MEL-28 melanoma,> 25 µM
same,GI50,CAKI-1 renal,> 8.82 µM
same,TGI,CAKI-1 renal,> 25 µM
same,GI50,SF-539 CNS,4.95 µM
same,TGI,SF-539 CNS,> 18.8 µM
same,GI50,A498 renal,1.88 µM
same,TGI,A498 renal,> 25 µM
same,GI50,RPMI-8226 leukemia,> 25 µM
same,TGI,RPMI-8226 leukemia,> 25 µM
same,GI50,MDA-MB-435,> 25 µM
same,TGI,MDA-MB-435,> 25 µM
same,GI50,SW-620 colon,> 16.1 µM
same,TGI,SW-620 colon,> 25 µM
same,GI50,MALME-3M melanoma,> 25 µM
same,TGI,MALME-3M melanoma,> 25 µM
same,GI50,U251 CNS,5.74 µM
same,TGI,U251 CNS,> 25 µM
same,GI50,HCT-116 colon,11.2 µM
same,TGI,HCT-116 colon,> 25 µM
same,GI50,MDA-MB-231 breast,> 25 µM
same,TGI,MDA-MB-231 breast,> 25 µM
same,GI50,HS 578T breast,3.43 µM
same,TGI,HS 578T breast,20.3 µM
same,GI50,OVCAR-5 ovarian,> 25 µM
same,TGI,OVCAR-5 ovarian,> 25 µM
same,GI50,SF-268 CNS,12.5 µM
same,TGI,SF-268 CNS,> 25 µM
